Data reported in ChEMBL document CHEMBL5625249, “Optimization and antifungal activity of quinoline derivatives linked to chalcone moiety combined with FLC against Candida albicans” (Eur J Med Chem, 2023).

Legend:
Type in all cases: functional
[1] = tested on: Candida albicans; assay: Synergistic antifungal activity against Clinical FLC-resistant Candida albicans 23 assessed as fractional inhibitory concentration index measured after 24 hrs in presence of fluconazole by microdilution method
[2] = tested on: Candida albicans; assay: Synergistic antifungal activity against FLC-sensitive Candida albicans SC5314 measured after 24 hrs in presence of fluconazole by microdilution method
[3] = tested on: Candida albicans; assay: Synergistic antifungal activity against Clinical FLC-resistant Candida albicans 23 measured after 24 hrs in presence of fluconazole by microdilution method
[4] = tested on: Candida albicans; assay: Antifungal activity against FLC-sensitive Candida albicans SC5314 measured after 24 hrs by microdilution method
[5] = tested on: Candida albicans; assay: Antifungal activity against Clinical FLC-resistant Candida albicans 23 measured after 24 hrs by microdilution method
[6] = tested on: Candida albicans; assay: Synergistic antifungal activity against FLC-sensitive Candida albicans SC5314 assessed as fractional inhibitory concentration index measured after 24 hrs in presence of fluconazole by microdilution method

CN1CCN(c2nc3ccccc3cc2/C=C/C(=O)c2ccc(N3CCN(CC(=O)c4ccc(Cl)c(Cl)c4)CC3)cc2)CC1
fractional inhibitory concentration index (FICI) [1]: 0.91 | MIC80 [2]: 17 µg/mL | MIC80 [3]: 36.2 µg/mL | MIC80 [4]: > 40 µg/mL | MIC80 [5]: > 40 µg/mL | fractional inhibitory concentration index (FICI) [6]: 3.14

CN1CCN(c2nc3ccccc3cc2/C=C/C(=O)c2ccc(N3CCN(S(=O)(=O)C4CC4)CC3)cc2)CC1
fractional inhibitory concentration index (FICI) [1]: 0.15 | MIC80 [2]: 4.93 µg/mL | MIC80 [3]: 6.03 µg/mL | MIC80 [4]: > 40 µg/mL | MIC80 [5]: > 40 µg/mL | fractional inhibitory concentration index (FICI) [6]: 0.91

CN1CCN(c2nc3ccccc3cc2/C=C/C(=O)c2ccc(N3CCN(C(=O)/C=C/c4ccccc4)CC3)cc2)CC1
fractional inhibitory concentration index (FICI) [1]: 0.15 | MIC80 [2]: > 40 µg/mL | MIC80 [3]: 5.83 µg/mL | MIC80 [4]: > 40 µg/mL | MIC80 [5]: > 40 µg/mL

CN1CCN(c2nc3ccccc3cc2/C=C/C(=O)c2ccc(N3CCN(Cc4ccc(F)c(F)c4)CC3)cc2)CC1
fractional inhibitory concentration index (FICI) [1]: 0.15 | MIC80 [2]: 2.06 µg/mL | MIC80 [3]: 6.18 µg/mL | MIC80 [4]: > 40 µg/mL | MIC80 [5]: > 40 µg/mL | fractional inhibitory concentration index (FICI) [6]: 0.38

CN1CCN(c2nc3ccccc3cc2/C=C/C(=O)c2ccc(N3CCN(C(=O)c4ccc(F)cc4)CC3)cc2)CC1
fractional inhibitory concentration index (FICI) [1]: 0.09 | MIC80 [2]: 0.88 µg/mL | MIC80 [3]: 3.43 µg/mL | MIC80 [4]: > 40 µg/mL | MIC80 [5]: > 40 µg/mL | fractional inhibitory concentration index (FICI) [6]: 0.16

C=C(C)C(=O)N1CCN(c2ccc(C(=O)/C=C/c3cc4ccccc4nc3N3CCN(C)CC3)cc2)CC1
fractional inhibitory concentration index (FICI) [1]: 0.12 | MIC80 [2]: 3.71 µg/mL | MIC80 [3]: 4.93 µg/mL | MIC80 [4]: > 40 µg/mL | MIC80 [5]: > 40 µg/mL | fractional inhibitory concentration index (FICI) [6]: 0.69

COC(=O)CN1CCN(c2ccc(C(=O)/C=C/c3cc4ccccc4nc3N3CCN(C)CC3)cc2)CC1
MIC80 [2]: 14.1 µg/mL | MIC80 [3]: > 40 µg/mL | MIC80 [4]: > 40 µg/mL | MIC80 [5]: > 40 µg/mL | fractional inhibitory concentration index (FICI) [6]: 2.6

CN1CCN(c2nc3ccccc3cc2/C=C/C(=O)c2ccc(N3CCN(S(=O)(=O)c4ccc(C(F)(F)F)cc4)CC3)cc2)CC1
fractional inhibitory concentration index (FICI) [1]: 0.03 | MIC80 [2]: > 40 µg/mL | MIC80 [3]: 1.15 µg/mL | MIC80 [4]: > 40 µg/mL | MIC80 [5]: > 40 µg/mL

Cc1ccc(S(=O)(=O)N2CCN(c3ccc(C(=O)/C=C/c4cc5ccccc5nc4N4CCN(C)CC4)cc3)CC2)cc1
fractional inhibitory concentration index (FICI) [1]: 0.2 | MIC80 [2]: > 40 µg/mL | MIC80 [3]: 8.08 µg/mL | MIC80 [4]: > 40 µg/mL | MIC80 [5]: > 40 µg/mL

CN1CCN(c2nc3ccccc3cc2/C=C/C(=O)c2ccc(N3CCN(S(=O)(=O)c4ccc(Cl)c(C(F)(F)F)c4)CC3)cc2)CC1
fractional inhibitory concentration index (FICI) [1]: 0.67 | MIC80 [2]: 5.31 µg/mL | MIC80 [3]: 26.8 µg/mL | MIC80 [4]: > 40 µg/mL | MIC80 [5]: > 40 µg/mL | fractional inhibitory concentration index (FICI) [6]: 0.98

C=CC(=O)N1CCN(c2ccc(C(=O)/C=C/c3cc4ccccc4nc3N3CCN(C)CC3)cc2)CC1
fractional inhibitory concentration index (FICI) [1]: 0.66 | MIC80 [2]: 4.11 µg/mL | MIC80 [3]: 26.4 µg/mL | MIC80 [4]: > 40 µg/mL | MIC80 [5]: > 40 µg/mL | fractional inhibitory concentration index (FICI) [6]: 0.76

CN1CCN(c2nc3ccccc3cc2/C=C/C(=O)c2ccc(N3CCN(S(C)(=O)=O)CC3)cc2)CC1
fractional inhibitory concentration index (FICI) [1]: 0.56 | MIC80 [2]: 28.1 µg/mL | MIC80 [3]: 22.5 µg/mL | MIC80 [4]: > 40 µg/mL | MIC80 [5]: > 40 µg/mL | fractional inhibitory concentration index (FICI) [6]: 5.2

COc1ccc(C(=O)CN2CCN(c3ccc(C(=O)/C=C/c4cc5ccccc5nc4N4CCN(C)CC4)cc3)CC2)cc1OC
fractional inhibitory concentration index (FICI) [1]: 0.7 | MIC80 [2]: 5.5 µg/mL | MIC80 [3]: 28.1 µg/mL | MIC80 [4]: > 40 µg/mL | MIC80 [5]: > 40 µg/mL | fractional inhibitory concentration index (FICI) [6]: 1.01

CN1CCN(c2nc3ccccc3cc2/C=C/C(=O)c2ccc(N3CCN(Cc4ccc(C#N)cc4)CC3)cc2)CC1
fractional inhibitory concentration index (FICI) [1]: 0.14 | MIC80 [2]: 4.73 µg/mL | MIC80 [3]: 5.4 µg/mL | MIC80 [4]: > 40 µg/mL | MIC80 [5]: > 40 µg/mL | fractional inhibitory concentration index (FICI) [6]: 0.88

CN1CCN(c2nc3ccccc3cc2/C=C/C(=O)c2ccc(N3CCN(C(=O)CCCl)CC3)cc2)CC1
MIC80 [2]: > 40 µg/mL | MIC80 [3]: > 40 µg/mL | MIC80 [4]: > 40 µg/mL | MIC80 [5]: > 40 µg/mL

CN1CCN(c2nc3ccccc3cc2/C=C/C(=O)c2ccc(N3CCN(S(=O)(=O)c4ccc([N+](=O)[O-])cc4)CC3)cc2)CC1
MIC80 [2]: 17.8 µg/mL | MIC80 [3]: > 40 µg/mL | MIC80 [4]: > 40 µg/mL | MIC80 [5]: > 40 µg/mL | fractional inhibitory concentration index (FICI) [6]: 3.3

CN1CCN(c2nc3ccccc3cc2/C=C/C(=O)c2ccc(N3CCN(C(=O)c4ccc(Cl)cc4)CC3)cc2)CC1
fractional inhibitory concentration index (FICI) [1]: 0.04 | MIC80 [2]: 0.64 µg/mL | MIC80 [3]: 1.49 µg/mL | MIC80 [4]: > 40 µg/mL | MIC80 [5]: > 40 µg/mL | fractional inhibitory concentration index (FICI) [6]: 0.12

Cc1ccc(C(=O)CN2CCN(c3ccc(C(=O)/C=C/c4cc5ccccc5nc4N4CCN(C)CC4)cc3)CC2)cc1
fractional inhibitory concentration index (FICI) [1]: 0.83 | MIC80 [2]: 5.68 µg/mL | MIC80 [3]: 33.4 µg/mL | MIC80 [4]: > 40 µg/mL | MIC80 [5]: > 40 µg/mL | fractional inhibitory concentration index (FICI) [6]: 1.05

CN1CCN(c2nc3ccccc3cc2/C=C/C(=O)c2ccc(N3CCN(S(=O)(=O)c4ccc(OC(F)(F)F)cc4)CC3)cc2)CC1
fractional inhibitory concentration index (FICI) [1]: 0.1 | MIC80 [2]: 4.31 µg/mL | MIC80 [3]: 4.05 µg/mL | MIC80 [4]: > 40 µg/mL | MIC80 [5]: > 40 µg/mL | fractional inhibitory concentration index (FICI) [6]: 0.8

CC(=O)N1CCN(c2ccc(C(=O)/C=C/c3cc4ccccc4nc3N3CCN(C)CC3)cc2)CC1
MIC80 [2]: > 40 µg/mL | MIC80 [3]: > 40 µg/mL | MIC80 [4]: > 40 µg/mL | MIC80 [5]: > 40 µg/mL

CN1CCN(c2nc3ccccc3cc2/C=C/C(=O)c2ccc(N3CCN(CC(=O)c4ccc(F)cc4)CC3)cc2)CC1
MIC80 [2]: 6.74 µg/mL | MIC80 [3]: > 40 µg/mL | MIC80 [4]: > 40 µg/mL | MIC80 [5]: > 40 µg/mL | fractional inhibitory concentration index (FICI) [6]: 1.25

CN1CCN(c2nc3ccccc3cc2/C=C/C(=O)c2ccc(N3CCNCC3)cc2)CC1
fractional inhibitory concentration index (FICI) [1]: 0.6 | MIC80 [2]: 2.56 µg/mL | MIC80 [3]: 24 µg/mL | MIC80 [4]: > 40 µg/mL | MIC80 [5]: > 40 µg/mL | fractional inhibitory concentration index (FICI) [6]: 0.47

CN1CCN(c2nc3ccccc3cc2/C=C/C(=O)c2ccc(N3CCN(S(=O)(=O)c4ccc(F)cc4)CC3)cc2)CC1
fractional inhibitory concentration index (FICI) [1]: 0.03 | MIC80 [2]: 18.3 µg/mL | MIC80 [3]: 1.14 µg/mL | MIC80 [4]: > 40 µg/mL | MIC80 [5]: > 40 µg/mL | fractional inhibitory concentration index (FICI) [6]: 3.39
